Experimental data published in ChEMBL document CHEMBL5584202, “Identification of benzothiazoles as novel PCSK9 inhibitors” (Bioorg Med Chem Lett, 2024).
The source made the active and inactive calls. The rule behind the calls is not given here.

Key:
HepG2 [1] = experiment: Downregulation of PCSK9 protein level in human HepG2 cells by Western blotting analysis; assay type: functional, cell-based
HepG2 [2] = experiment: Downregulation of LDLR protein level in human HepG2 cells by Western blotting analysis; assay type: functional, cell-based

CC(C)(C)OC(=O)N1CCN(Cc2ccc3nc(NC(=O)c4ccc(S(=O)(=O)NCCC#N)cc4)sc3c2)CC1
Activity (HepG2 [1]): Active
Activity (HepG2 [2]): Active
